ChEMBL document CHEMBL1201862, “PubChem BioAssay data set” (2004)
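Interpolation was linear, between the two tested concentrations surrounding the appropriate level; five concentrations were tested over 48 hours in 96-well plates. GI50 = concentration required for 50% inhibition of growth.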 Calls of active or inactive are those of the source. No stated cut-off is given here; in the data, active = GI50 up to about 1.1 µM and inactive = higher.

Assays:
Assay in all cases: growth of human tumour cells (NCI), 48 h
786-0 = system: 786-0
A498 = system: A498
ACHN = system: ACHN
CAKI-1 = system: CAKI-1
CCRF-CEM = system: CCRF-CEM
COLO 205 = system: COLO 205
DLD-1 = system: DLD-1
DMS-114 = system: DMS-114
DMS-273 = system: DMS-273
HCC 2998 = system: HCC 2998
HCT-116 = system: HCT-116
HCT-15 = system: HCT-15
HL-60 = system: HL-60
HOP-62 = system: HOP-62
HOP-92 = system: HOP-92
IGROV-1 = system: IGROV-1
K562 = system: K562
LXFL 529 = system: LXFL 529
M14 = system: M14
M19-MEL = system: M19-MEL
MOLT-4 = system: MOLT-4
Malme-3M = system: Malme-3M
NCI-H226 = system: NCI-H226
NCI-H23 = system: NCI-H23
NCI-H460 = system: NCI-H460
NCI-H522 = system: NCI-H522
OVCAR-4 = system: OVCAR-4
RPMI-8226 = system: RPMI-8226
RXF 631 = system: RXF 631
SF-268 = system: SF-268
SF-539 = system: SF-539
SK-MEL-28 = system: SK-MEL-28
SK-MEL-2 = system: SK-MEL-2
SK-OV-3 = system: SK-OV-3
SN12C = system: SN12C
SNB-75 = system: SNB-75
SR = system: SR
UACC-62 = system: UACC-62
UO-31 = system: UO-31
XF498 = system: XF498
A549 = system: A549
EKVX = system: EKVX
HT-29 = system: HT-29
KM-20L2 = system: KM-20L2
KM12 = system: KM12
LOX IMVI = system: LOX IMVI
OVCAR-3 = system: OVCAR-3
OVCAR-5 = system: OVCAR-5
OVCAR-8 = system: OVCAR-8
RXF 393 = system: RXF 393
SF-295 = system: SF-295
SK-MEL-5 = system: SK-MEL-5
SNB-19 = system: SNB-19
SNB-78 = system: SNB-78
SW-620 = system: SW-620
TK-10 = system: TK-10
UACC-257 = system: UACC-257
U-251 = system: U-251

With `Cc1[nH]c(=O)nc(N(CCO)/N=C/c2ccccc2Cl)c1C(=O)Nc1cc(Cl)cc(Cl)c1` the GI50 (786-0) was 20.1 µM (inactive), the GI50 (A498) was 24.6 µM (inactive) and the GI50 (ACHN) was 29.2 µM (inactive). The GI50 (CAKI-1) was 45.4 µM (inactive), the GI50 (CCRF-CEM) was 64.1 µM (inactive) and the GI50 (COLO 205) was > 100 µM (inactive). The GI50 (DLD-1) was 53.1 µM (inactive), the GI50 (DMS-114) was 41.2 µM (inactive) and the GI50 (DMS-273) was 43.8 µM (inactive). The GI50 (HCC 2998) was 86.5 µM (inactive), the GI50 (HCT-116) was 23 µM (inactive) and the GI50 (HCT-15) was over 100 µM. For the same compound, the GI50 (HL-60) was > 100 µM (inactive), the GI50 (HOP-62) was 26.5 µM (inactive) and the GI50 (HOP-92) was 23.9 µM (inactive). For the same compound, the GI50 (IGROV-1) was > 100 µM (inactive), the GI50 (K562) was 37.3 µM (inactive) and the GI50 (LXFL 529) was 35.2 µM (inactive). The GI50 (M14) was 67.3 µM (inactive), the GI50 (M19-MEL) was > 100 µM (inactive) and the GI50 (MOLT-4) was 77.3 µM (inactive). The GI50 (Malme-3M) was > 10 µM (inactive), the GI50 (NCI-H226) was 23.1 µM (inactive) and the GI50 (NCI-H23) was 34.9 µM (inactive). For the same compound, the GI50 (NCI-H460) was 27.9 µM (inactive), the GI50 (NCI-H522) was 23.1 µM (inactive) and the GI50 (OVCAR-4) was 31.6 µM (inactive). For the same compound, the GI50 (RPMI-8226) was 40.2 µM (inactive), the GI50 (RXF 631) was 29.2 µM (inactive) and the GI50 (SF-268) was 31.8 µM (inactive). For the same compound, the GI50 (SF-539) was 24.5 µM (inactive), the GI50 (SK-MEL-28) was 36.1 µM (inactive) and the GI50 (SK-MEL-2) was 48.9 µM (inactive). For the same compound, the GI50 (SK-OV-3) was 20.4 µM (inactive), the GI50 (SN12C) was 43.7 µM (inactive) and the GI50 (SNB-75) was 17.7 µM (inactive). The GI50 (SR) was 46.1 µM (inactive), the GI50 (UACC-62) was > 100 µM (inactive) and the GI50 (UO-31) was 43.4 µM (inactive). The GI50 (XF498) was > 100 µM (inactive).
With `CCN(CC)/[N+]([O-])=N/O` the GI50 (A498) was > 100 µM (inactive), the GI50 (A549) was > 100 µM (inactive) and the GI50 (ACHN) was > 100 µM (inactive). For the same compound, the GI50 (CAKI-1) was > 100 µM (inactive), the GI50 (CCRF-CEM) was > 100 µM (inactive) and the GI50 (DMS-273) was > 100 µM (inactive). The GI50 (EKVX) was > 100 µM (inactive), the GI50 (HCC 2998) was > 100 µM (inactive) and the GI50 (HCT-116) was > 100 µM (inactive). The GI50 (HCT-15) was over 100 µM, the GI50 (HL-60) was > 100 µM (inactive) and the GI50 (HOP-62) was > 100 µM (inactive). The GI50 (HOP-92) was > 100 µM (inactive), the GI50 (HT-29) was > 100 µM (inactive) and the GI50 (IGROV-1) was > 100 µM (inactive). For the same compound, the GI50 (K562) was > 100 µM (inactive), the GI50 (KM-20L2) was > 100 µM (inactive) and the GI50 (KM12) was > 100 µM (inactive). For the same compound, the GI50 (LOX IMVI) was > 100 µM (inactive), the GI50 (LXFL 529) was > 100 µM (inactive) and the GI50 (M14) was > 100 µM (inactive). The GI50 (M19-MEL) was > 100 µM (inactive), the GI50 (MOLT-4) was > 100 µM (inactive) and the GI50 (NCI-H226) was > 100 µM (inactive). For the same compound, the GI50 (NCI-H23) was > 100 µM (inactive), the GI50 (NCI-H460) was > 100 µM (inactive) and the GI50 (NCI-H522) was > 100 µM (inactive). For the same compound, the GI50 (OVCAR-3) was > 100 µM (inactive), the GI50 (OVCAR-5) was > 100 µM (inactive) and the GI50 (OVCAR-8) was > 100 µM (inactive). For the same compound, the GI50 (RXF 393) was > 100 µM (inactive), the GI50 (RXF 631) was > 100 µM (inactive) and the GI50 (SF-268) was > 100 µM (inactive). The GI50 (SF-295) was > 100 µM (inactive), the GI50 (SF-539) was > 100 µM (inactive) and the GI50 (SK-MEL-28) was > 100 µM (inactive). For the same compound, the GI50 (SK-MEL-2) was > 100 µM (inactive), the GI50 (SK-MEL-5) was > 100 µM (inactive) and the GI50 (SK-OV-3) was > 100 µM (inactive). The GI50 (SN12C) was > 100 µM (inactive), the GI50 (SNB-19) was > 100 µM (inactive) and the GI50 (SNB-78) was > 100 µM (inactive). The GI50 (SR) was > 100 µM (inactive), the GI50 (SW-620) was > 100 µM (inactive) and the GI50 (TK-10) was > 100 µM (inactive). For the same compound, the GI50 (UACC-257) was > 100 µM (inactive), the GI50 (UACC-62) was > 100 µM (inactive) and the GI50 (UO-31) was > 100 µM (inactive). For the same compound, the GI50 (XF498) was 18.9 µM (inactive).
With `Nc1ncnc2c1N=CN(Oc1ccccc1)N2` the GI50 (786-0) was > 100 µM (inactive), the GI50 (A549) was > 100 µM (inactive) and the GI50 (ACHN) was > 100 µM (inactive). For the same compound, the GI50 (CAKI-1) was > 100 µM (inactive), the GI50 (COLO 205) was > 100 µM (inactive) and the GI50 (DLD-1) was > 100 µM (inactive). For the same compound, the GI50 (DMS-114) was > 100 µM (inactive), the GI50 (DMS-273) was > 100 µM (inactive) and the GI50 (EKVX) was > 100 µM (inactive). The GI50 (HCT-116) was > 100 µM (inactive), the GI50 (HCT-15) was over 100 µM and the GI50 (HOP-92) was > 100 µM (inactive). The GI50 (HT-29) was > 100 µM (inactive), the GI50 (IGROV-1) was > 100 µM (inactive) and the GI50 (K562) was > 100 µM (inactive). The GI50 (KM-20L2) was > 100 µM (inactive), the GI50 (KM12) was > 100 µM (inactive) and the GI50 (LXFL 529) was > 100 µM (inactive). The GI50 (M14) was > 100 µM (inactive), the GI50 (M19-MEL) was > 100 µM (inactive) and the GI50 (MOLT-4) was > 100 µM (inactive). For the same compound, the GI50 (Malme-3M) was 18.3 µM (inactive), the GI50 (NCI-H226) was > 100 µM (inactive) and the GI50 (NCI-H23) was > 100 µM (inactive). The GI50 (NCI-H460) was > 100 µM (inactive), the GI50 (OVCAR-3) was > 100 µM (inactive) and the GI50 (OVCAR-4) was > 100 µM (inactive). For the same compound, the GI50 (OVCAR-5) was > 100 µM (inactive), the GI50 (OVCAR-8) was > 100 µM (inactive) and the GI50 (RPMI-8226) was > 100 µM (inactive). For the same compound, the GI50 (RXF 393) was > 100 µM (inactive), the GI50 (RXF 631) was > 100 µM (inactive) and the GI50 (SF-295) was > 100 µM (inactive). For the same compound, the GI50 (SF-539) was > 100 µM (inactive), the GI50 (SK-MEL-28) was > 100 µM (inactive) and the GI50 (SK-MEL-2) was > 100 µM (inactive). For the same compound, the GI50 (SK-MEL-5) was > 100 µM (inactive), the GI50 (SK-OV-3) was > 100 µM (inactive) and the GI50 (SN12C) was 21.5 µM (inactive). The GI50 (SNB-75) was 14 µM (inactive), the GI50 (SNB-78) was > 100 µM (inactive) and the GI50 (SR) was > 100 µM (inactive). The GI50 (SW-620) was > 100 µM (inactive), the GI50 (TK-10) was > 100 µM (inactive) and the GI50 (U-251) was > 100 µM (inactive). For the same compound, the GI50 (UACC-257) was > 100 µM (inactive), the GI50 (UACC-62) was > 100 µM (inactive) and the GI50 (XF498) was > 100 µM (inactive).
